The values that follow come from patent US6852733B2, “Sodium-hydrogen exchanger type 1 inhibitor” (Pfizer Inc., priority 2000, dated 2005).

Structures are written as SMILES.

One data set has as its target human NHE-1 (Homo sapiens, UniProt P19634). Description: Measurement of human NHE-1 inhibitory activity (NHE-mediated recovery of intracellular pH, BCECF fluorescence).
Data set [1] in a line: Identification of metabolite in human plasma samples by LC/MS/MS and LC/NMR. The data set is classed as in vivo. As to conditions: human plasma after intravenous administration of 5-cyclopropyl-1-(quinolin-5-yl)-1H-pyrazole-4-carbonyl]guanidine. The text has this:
It was identified from samples of human plasma obtained after intravenous administration of 5-cyclopropyl-1-(quinolin-5-yl)-1H-pyrazole-4-carbonyl]guanidine to human subjects. The structure of this compound was independently verified by chemical synthesis. In another aspect of this invention [5-cyclopropyl-1-(2-quinolon-5-yl)-1H-pyrazole-4-carbonyl]guanidine may be prepared by administering [5-cyclopropyl-1-(quinolin-5-yl)-1H-pyrazole-4-carbonyl]guanidine to a human and isolating the desired metabolite from the plasma. Alternatively, the metabolite need not be isolated from the human since it is produced in vivo. […]
An aliquot (100 μL or 50 μL) of the concentrated sample was injected onto an LC/MS/MS instrument equipped with a Zorbax Rx-C8 4.6×150 mm column, analyzed on PE Sciex API 2000 or Finnigan LCQ mass spectrometer and monitored by UV detector at 254 nm. […] Under these LC conditions a metabolite was detected at a retention time of 11.8 minutes ([5-cyclopropyl-1-(quinolin-5-yl)-1H-pyrazole-4-carbonyl]guanidine was detected at 13.7 minutes).
The salts were removed from the above concentrated sample by solid phase extraction. […] 50 μL of this sample was injected onto an LC/NMR instrument equipped with a Zorbax Rx-C8 4.6×150 mm column, analyzed on a Bruker 500 MHz NMR spectrometer and monitored by UV detector at 235 nm. […]

Sequence of human NHE-1 (P19634 whole entry): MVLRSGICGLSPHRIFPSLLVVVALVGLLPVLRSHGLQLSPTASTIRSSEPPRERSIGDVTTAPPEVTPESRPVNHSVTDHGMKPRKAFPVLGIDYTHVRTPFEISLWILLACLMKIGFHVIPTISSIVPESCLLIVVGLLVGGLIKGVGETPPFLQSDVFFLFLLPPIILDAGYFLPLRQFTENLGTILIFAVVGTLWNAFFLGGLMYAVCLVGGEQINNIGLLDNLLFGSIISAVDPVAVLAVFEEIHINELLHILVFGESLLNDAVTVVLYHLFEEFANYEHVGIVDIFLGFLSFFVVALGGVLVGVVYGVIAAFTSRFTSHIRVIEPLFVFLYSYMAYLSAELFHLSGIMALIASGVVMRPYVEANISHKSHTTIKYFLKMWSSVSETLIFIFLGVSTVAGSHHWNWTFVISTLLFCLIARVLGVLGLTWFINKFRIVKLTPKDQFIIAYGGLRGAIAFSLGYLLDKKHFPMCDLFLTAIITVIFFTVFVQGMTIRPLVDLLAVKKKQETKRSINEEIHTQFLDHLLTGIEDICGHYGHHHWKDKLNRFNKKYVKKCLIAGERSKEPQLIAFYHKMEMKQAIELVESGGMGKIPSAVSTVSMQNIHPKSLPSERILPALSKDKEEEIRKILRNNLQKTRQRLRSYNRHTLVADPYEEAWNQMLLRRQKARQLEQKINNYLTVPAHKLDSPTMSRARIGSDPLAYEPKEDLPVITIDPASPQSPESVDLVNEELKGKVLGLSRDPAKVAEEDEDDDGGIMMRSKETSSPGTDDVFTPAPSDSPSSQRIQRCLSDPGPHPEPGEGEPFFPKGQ
Experimental for human NHE-1: Methodologies for measurement of human NHE-1 activity and inhibitor potency are based on those published by Watson et al., Am. J. Physiol., 24:G229-G238, 1991), where NHE-mediated recovery of intracellular pH is measured following intracellular acidification. Thus, fibroblasts stably expressing human NHE-1 (Counillon, L. et al., Mol. Pharmacol., 44:1041-1045 (1993) are plated onto collagen coated 96 well plates (50,000/well) and grown to confluence in growth media (DMEM high glucose, 10% fetal bovine serum, 50 u/ml penicillin and streptomycin). Confluent plates are incubated for 30 min at 37° C. with the pH sensitive fluorescent probe BCECF (5 μM; Molecular Probes, Eugene, Oreg.). BCECF loaded cells are incubated for 30 min at 37° C. in acid loading media (70 mM choline chloride, 50 mM NHCl4, 5 mM KCl, 1 mM MgCl2, 1.8 mM CaCl2, 5 mM glucose, 10 mM HEPES, pH 7.5), and then placed in a Fluorescent Imaging Plate Reader (Molecular Devices, CA). BCECF fluorescence is monitored using excitation and emission wavelengths of 485 nm and 525 nM, respectively. Intracellular acidification is initiated via rapid replacement of acid loading media with recovery media (120 mM NaCl, 5 mM KCl, 1 mM MgCl2, 1.8 mM CaCl2, 5 mM glucose, 10 mM HEPES, pH 7.5)±test compound, and NHE-mediated recovery of intracellular pH is monitored as the subsequent time-dependent increase BCECF fluorescence.

For the compound `N=C(N)NC(=O)c1cnn(-c2cccc3[nH]c(=O)ccc23)c1C1CC1` [Formula I, [5-cyclopropyl-1-(2-quinolon-5-yl)-1H-pyrazole-4-carbonyl]guanidine], at human NHE-1, the midpoint of inhibition, the IC50, lay at 200 nM. In data set [1], the “metabolite identification in human plasma” value is given as “human metabolite”.
